The nature of series [1]: Plasma concentration in RPA reaction study (satellite / exposure). It is filed as in vivo, mouse. The conditions noted are these: C57BL/6, mouse, plasma; for concentration at 5 h: pretreatment 1 hr. The method, then:
Pretreatment time, in which the test compounds are administered prior to Ab/Ag challenge, depends on the pharmacokinetic (PK) properties of each individual compound. Four hours after induction of Arthus reaction, mice are euthanized, and tissues are harvested for assessment of edema.
All compounds tested were administered by the oral route.

A further series addresses T1, Syk kinase (Homo sapiens, UniProt P43405).
T1 construct: purchased Upstate, Lake Placid N.Y
Briefly: Syk kinase biochemical fluorescence polarization assay. As to conditions: isolated Syk kinase, 11pt, read-out: fp_syk, 11pt. As for the experimental part: Many of the 2,4-pyrimidinediamine compounds were tested for the ability to inhibit Syk kinase catalyzed phosphorylation of a peptide substrate in a biochemical fluorescenced polarization assay with isolated Syk kinase. In this experiment, Compounds were diluted to 1% DMSO in kinase buffer (20 mM HEPES, pH 7.4, 5 mM MgCl2, 2 mM MnCl2, 1 mM DTT, 0.1 mg/mL acetylated Bovine Gamma Globulin). Compound in 1% DMSO (0.2% DMSO final) was mixed with ATP/substrate solution at room temperature. Syk kinase (Upstate, Lake Placid N.Y.) was added to a final reaction volume of 20 uL, and the reaction was incubated for 30 minutes at room temperature. […] EDTA (10 mM final)/anti-phosphotyrosine antibody (1× final)/fluorescent phosphopeptide tracer (0.5× final) was added in FP Dilution Buffer to stop the reaction for a total volume of 40 uL according to manufacturer's instructions (PanVera Corporation) The plate was incubated for 30 minutes in the dark at room temperature. Plates were read on a Polarion fluorescence polarization plate reader (Tecan). Data were converted to amount of phosphopeptide present using a calibration curve generated by competition with the phosphopeptide competitor provided in the Tyrosine Kinase Assay Kit, Green (PanVera Corporation).
In Tabe 1, all reported values are IC50s (in μM).
For orientation: In fluorescence polarisation assays a small probe gives low polarisation when free and higher when bound to something large.

We go through two molecules from US7560466B2, “Methods of treating or preventing autoimmune diseases with 2,4-pyrimidinediamine compounds” (Rigel Pharmaceuticals, Inc., priority 2003, dated 2009).

Like-named read-outs stand apart in the source and are kept apart here.

Take `Cn1c(N2CCOCC2)nc2cc(Nc3ncc(F)c(Nc4ccc5c(c4)NC(=O)C(C)(C)O5)n3)ccc21` [Compound 944, N4-(2,2-Dimethyl-3-oxo-4H-benz[1,4]oxazin-6-yl)-5-fluoro-N2-[1-methyl-2-(4-morpholino)benzimidazol-5-yl]-2,4-pyrimidinediamine]: the concentration at 5 h in series [1] (2 mg/kg oral, read-out: Exposure = Pretreatment Time + 4 hours Plasma Concentration ± SEM) was 0.0043 ± 0.0042 µg/mL; in series [1] (5 mg/kg oral, read-out: Exposure = Pretreatment Time + 4 hours Plasma Concentration ± SEM), 0.0035 ± 0.0053 µg/mL; in series [1] (15 mg/kg oral, read-out: Exposure = Pretreatment Time + 4 hours Plasma Concentration ± SEM), 0.0297 ± 0.0259 µg/mL. The IC50 on Syk kinase was less than 10 µM.
Turning to `COc1c(C)cc(Nc2ncc(F)c(Nc3ccc4c(c3)NC(=O)C(C)(C)O4)n2)cc1Cl` [Compound 994], the concentration at 5.5 h in series [1] (100 mg/kg oral, 90 minutes pretreatment, read-out: Exposure = Pretreatment Time + 4 hours Plasma Concentration ± SEM) was 0.0442 ± 0.0089 µg/mL. For the same molecule, the concentration at 90 min in series [1] (100 mg/kg oral, 90 minutes pretreatment, read-out: Satellite: At time of challenge Plasma Concentration ± SEM) is 0.0786 ± 0.0264 µg/mL. For the same molecule, the IC50 on Syk kinase was less than 10 µM.
